A short description of series [1]: Thermal stability of the crystalline form (XRPD).
A short description of series [2]: Solubility in aqueous solution of NaCl 0.9% (UV absorbance at 260 nm). The format is physicochemical. As to conditions: aqueous NaCl 0.9%, stirred 500 rpm, 24 hours at 37° C.; for solubility at 24 h: aqueous solution of NaCl 0.9%, 37 °C, saline or isotonic, thermodynamic from solid. The protocol: The solubility is 0.6 mg/mL. […]
The sample of 6-(1H-imidazol-1-yl)-2-phenylquinazoline phosphate, form A, is stirred in an aqueous solution of NaCl 0.9%, at 500 rpm, so as to obtain a suspension (50 mg in 2 mL), for 24 hours at 37° C.
(§1) The sample of 6-(1H-imidazol-1-yl)-2-phenylquinazoline phosphate, form A, is stirred in an aqueous solution of NaCl 0.9%, at 500 rpm, so as to obtain a suspension (70 mg in 2 mL), for 24 hours at 37° C. […] The dissolution rate is measured by adding 2 mg of product to 40 mL of water at 37° C., stirring at 500 rpm, and measuring the absorbance at 260 nm every 0.05 min; the dissolution rate is found to be 1.9×10^−4 gr/min.

Series [3] in a line: Dissolution rate in water at 37° C. The format is physicochemical. As to conditions: 2 mg of product in 40 mL of water at 37° C., 500 rpm, absorbance at 260 nm. The protocol: as §1
The nature of series [4]: Pharmacokinetics in rats, oral versus intravenous administration. The format is in vivo. As to conditions: for half-life: read-out: T½. The protocol: The samples are analysed by HPLC-MS to determine the content of 6-(1H-imidazol-1-yl)-2-phenylquinazoline, using diphenylhydramine hydrochloride as internal standard. The pharmacokinetic parameters measured are summarized hereinbelow: it is noted that, despite the fact that the polymorph under consideration is of low solubility, the bioavailability (F %) is entirely acceptable.
The pharmacokinetic parameters measured are summarized hereinbelow: it is noted that the salt under consideration has optimum bioavailability (F %). […]

The nature of series [5]: Stability to mechanical stress (milling, XRPD). The format is physicochemical. As to conditions: Retsch MM 200 mill, 50 Hz, 5 min. The protocol:
6-(1H-Imidazol-1-yl)-2-phenylquinazoline, polymorph A, was subjected to milling by means of a Retsch MM 200 mill, at 50 Hz for 5 min., and the product thus obtained was analysed by XRPD.
6-(1H-Imidazol-1-yl)-2-phenylquinazoline succinate form A, was subjected to milling by means of a Retsch MM 200 mill, at 50 Hz for 5 min., and the product thus obtained was subjected to XRPD analysis.
6-(1H-Imidazol-1-yl)-2-phenylquinazoline L-tartrate dihydrate, form A, was subjected to milling by means of a Retsch MM 200 mill, at 50 Hz for 5 min., and the product thus obtained was subjected to XRPD analysis.
6-(1H-Imidazol-1-yl)-2-phenylquinazoline maleate, form A, was subjected to milling by means of a Retsch MM 200 mill, at 50 Hz for 5 min., and the product thus obtained was subjected to XRPD analysis.

The nature of series [6]: Stability to moisture, DVS analysis (Differential Vapour Sorption). The format is physicochemical. As to conditions: 25° C.; for hygroscopicity (DVS): hydration/dehydration cycle. On the procedure: The sample placed on a microbalance is subjected, in a chamber of controlled humidity, at 25° C., to a cycle of hydration (increasing humidity, red line) and of dehydration (decreasing humidity, blue line).
The sample of 6-(1H-imidazol-1-yl)-2-phenylquinazoline succinate form A was subjected to DVS analysis (as described in Example 32).
The sample of 6-(1H-imidazol-1-yl)-2-phenylquinazoline L-tartrate dihydrate, form A, was subjected to DVS analysis.
The sample of 6-(1H-imidazol-1-yl)-2-phenylquinazoline maleate, form A, was subjected to DVS analysis.

Series [7] in a line: Hygroscopicity noted for the isolated crystalline product. The format is physicochemical. As to conditions: as noted in the preparation example.
The mark [8] stands for this setting: 90° C., 12 hours (or at least 12 hours), XRPD.
[9] abbreviates: IV, 5 mg/kg, dihydrochloride monohydrate.
Where [10] appears, read: OS (oral), 10 mg/Kg, dihydrochloride monohydrate.
Setting [11] is: heating at/to 90° C., time not stated, succinate.

Values joined by “and” are separate entries in the source; they are usually repeats but may differ in a detail not shown here. Identical values can stand only once. “Also recorded” adds a separate entry of the source. Counter-ions that a name gives are not always drawn. Like-named read-outs stand apart in the source and are kept apart here.

With `O=C(O)C(O)C(O)C(=O)O.c1ccc(-c2ncc3cc(-n4ccnc4)ccc3n2)cc1` [tartrate salt form D, 6-(1H-imidazol-1-yl)-2-phenylquinazoline (L)-tartrate], the “thermal stability of crystalline form” value is “gives an XRPD corresponding to form A” in series [1] (40° C., RH 85%, 7 days, XRPD) and “an amorphous product” in series [1] (setting [8]).

As for `c1ccc(-c2ncc3cc(-n4ccnc4)ccc3n2)cc1` [form C, 6-(1H-imidazol-1-yl)-2-phenylquinazoline monohydrate], the “thermal stability of crystalline form” value is given as “stable” in series [1] (40° C., RH 85%, 5 days (at least 5 days for polymorph A), XRPD) and “complete conversion into form E” in series [1] (90° C., 3 hours, XRPD, monohydrate).

In series [2], `c1ccc(-c2ncc3cc(-n4ccnc4)ccc3n2)cc1` [dihydrochloride monohydrate form A, 6-(1H-imidazol-1-yl)-2-phenylquinazoline dihydrochloride monohydrate] displayed a solubility at 24 h of 138000 µg/mL. In addition, the dissolution rate in series [3] was 2.17×10^−3 gr/min. Also, in series [4] (setting [9]), the CL came to 24 mL/min/kg, the T½ was 46.6 min and the V came to 1.26 L/kg. In addition, the “F (bioavailability)” value in series [4] (OS 10 mg/Kg compared with IV 5 mg/kg, dihydrochloride monohydrate) is on record as 90.0%. In addition, in series [4] (setting [10]), the CL was 18 mL/min/kg, the Tmax is listed as 80 min, the T½ turned out to be 59.9 min and the V came out at 2.96 L/kg. Further, the stability to milling entry in series [5] (dihydrochloride monohydrate) was “No increase in the amount of amorphous product present relative to the reference example, as well as no foreign signals attributable to other forms”. Besides, in series [6], the “hygroscopicity (DVS)” value is given as “in the range 30-80% relative humidity (RH), the product is not particularly hygroscopic”. Also, the “water content (DVS)” value in series [6] (range 30-80% relative humidity) is reported as “about 5%”. In addition, the “hygroscopicity of the isolated product” value in series [7] is listed as “non-hygroscopic”. Moreover, the “thermal stability of crystalline form” value in series [1] (40° C., RH 85%, 7 days, XRPD, dihydrochloride monohydrate) is reported as “stable”. For the same compound, in series [1] (90° C., VT-XRPD), the “time after which complete conversion into the monohydrochloride is noted” value is 48 h and the “time after which formation of the monohydrochloride is noted” value turned out to be 36 h. Further, the “thermal stability of crystalline form” value in series [1] (90° C., several hours) was “stable”.

For the compound `O=C(O)CCC(=O)O.c1ccc(-c2ncc3cc(-n4ccnc4)ccc3n2)cc1` [succinate salt form C, 6-(1H-imidazol-1-yl)-2-phenylquinazoline succinate], in series [7] (succinate), the “hygroscopicity of the isolated product” value is listed as “not hygroscopic”. The “thermal stability of crystalline form” value in series [1] (setting [11]) is listed as “stable”.

Take `c1ccc(-c2ncc3cc(-n4ccnc4)ccc3n2)cc1` [form B, 6-(1H-imidazol-1-yl)-2-phenylquinazoline monohydrate]: the “thermal stability of crystalline form” value in series [1] (40° C., RH 85%, 7 days, XRPD, monohydrate) is on record as “appearance of the signals of form E”. Also, in series [1] (heated to between 40° C. and 180° C.), the “behaviour in variable temperature experiment (VT-XRPD)” value is listed as “conversion into form E”.

In series [2] (phosphate), `O=P(O)(O)O.c1ccc(-c2ncc3cc(-n4ccnc4)ccc3n2)cc1` [phosphate, form A, 6-(1H-imidazol-1-yl)-2-phenylquinazoline phosphate] gave a solubility of 3600 µg/mL. The solubility at 24 h in series [2] was 6200 µg/mL. Also, the dissolution rate in series [3] (phosphate) was 1.73×10^−4 gr/min and 1.9×10^−4 gr/min.

In the case of `Cl.c1ccc(-c2ncc3cc(-n4ccnc4)ccc3n2)cc1` [hydrochloride salt form B, 6-(1H-imidazol-1-yl)-2-phenylquinazoline hydrochloride], the “hygroscopicity of the isolated product” value in series [7] was “hygroscopic”.

As to `O=C(O)C(O)C(O)C(=O)O.c1ccc(-c2ncc3cc(-n4ccnc4)ccc3n2)cc1` [tartrate form A, 6-(1H-imidazol-1-yl)-2-phenylquinazoline (L) tartrate dihydrate], the solubility at 24 h in series [2] amounted to 2500 µg/mL. For the same compound, the dissolution rate in series [3] is 1.04×10^−3 gr/min. Moreover, the V came out at 1.4 L/kg in series [4] (IV, 5 mg/kg) and 5.47 L/kg in series [4] (OS (oral), 10 mg/Kg). The CL in series [4] (OS (oral), 10 mg/Kg) amounted to 17 mL/min/kg. In addition, the bioavailability in series [4] (rat, blood, OS 10 mg/Kg compared with IV 5 mg/kg, read-out: F (bioavailability)) is 81%. In series [4] (rat, blood, iv, 5 mg/kg), this compound showed a clearance of 23 mL/min/kg. The half-life in series [4] (rat, blood, iv, 5 mg/kg, IV, 5 mg/kg) came to 47.7 min; in series [4] (rat, blood, po, 10 mg/kg, OS (oral), 10 mg/Kg), 47.2 min. In addition, the Tmax in series [4] (rat, blood, po, 10 mg/kg, OS (oral), 10 mg/Kg, read-out: Tmax (converted)) is 100 min. Also, the stability to milling result in series [5] is “has not undergone any changes of crystalline form, and a slight increase in the presence of amorphous product is revealed”. The “hygroscopicity (DVS)” value in series [6] (tartrate dihydrate) is listed as “not hygroscopic in the range 25-70% RH; also recorded: point of inflection at 75% RH; also recorded: highly hygroscopic only at values of greater than 80% RH”. In series [7], the “hygroscopicity of the isolated product” value is reported as “non-hygroscopic”. The “thermal stability of crystalline form” value in series [1] (40° C., 70% RH, 7 days, XRPD) was “stable”; in series [1] (90° C., 12 hours (or at least 12 hours), XRPD, tartrate dihydrate) it was “gives rise to the amorphous form”.

Take `O=C(O)CCC(=O)O.c1ccc(-c2ncc3cc(-n4ccnc4)ccc3n2)cc1` [succinate salt form B, 6-(1H-imidazol-1-yl)-2-phenylquinazoline succinate]: in series [7] (succinate), the “hygroscopicity of the isolated product” value was “non-hygroscopic”. The “thermal stability of crystalline form” value in series [1] (setting [11]) is given as “converted into form A”.

Regarding `O=C(O)/C=C/C(=O)O.c1ccc(-c2ncc3cc(-n4ccnc4)ccc3n2)cc1` [fumarate form A, 6-(1H-imidazol-1-yl)-2-phenylquinazoline fumarate], the solubility at 24 h in series [2] amounted to 1200 µg/mL. Besides, the dissolution rate in series [3] is 2.67×10^−5 gr/min. Also, in series [7], the “hygroscopicity of the isolated product” value is “non-hygroscopic”. Further, the “thermal stability of crystalline form” value in series [1] (40° C., RH 85%, 7 days, XRPD) is listed as “stable”.

In the case of `O.O=C(O)C(O)C(O)C(=O)O.c1ccc(-c2ncc3cc(-n4ccnc4)ccc3n2)cc1` [tartrate salt form C, 6-(1H-imidazol-1-yl)-2-phenylquinazoline (L)-tartrate monohydrate], the “thermal stability of crystalline form” value is “stable” in series [1] (40° C., RH 85%, 7 days, XRPD) and “stable” in series [1] (setting [8]).

“6-(1H-imidazol-1-yl)-2-phenylquinazoline maleate hemihydrate [maleate salt form B]”: the “thermal stability of crystalline form” value in series [1] (40° C., RH 85%, 7 days, XRPD) is on record as “partially converted into form A”; in series [1] (setting [8]), “converted into form A”.

For the compound `c1ccc(-c2ncc3cc(-n4ccnc4)ccc3n2)cc1` [form D, 6-(1H-imidazol-1-yl)-2-phenylquinazoline], the “thermal stability of crystalline form” value in series [1] (40° C., RH 85%, 7 days, XRPD) is “stable”; in series [1] (90° C., 3 hours, XRPD), “stable”.

On to `O.O.O.O.O=C(O)C(O)C(O)C(=O)O.c1ccc(-c2ncc3cc(-n4ccnc4)ccc3n2)cc1` [tartrate salt form B, 6-(1H-imidazol-1-yl)-2-phenylquinazoline (L)-tartrate tetrahydrate], for which the “thermal stability of crystalline form” value in series [1] (40° C., RH 85%, 7 days, XRPD) is on record as “stable”; in series [1] (setting [8]), “gives rise to the amorphous form”.

Values taken from patent US9174966B2, “Crystalline forms of 6-(1H-imidazol-1-yl)-2-phenylquinazoline” (ROTTAPHARM S.P.A., priority 2009, dated 2015).
